Changes are numbered by the printed parent chain. Entries after “also recorded” stand apart in the source; their conditions may differ. Where two headings read alike, the source gives them in different places.
What was measured:
[1] = molecular target: T1, OCT1*5 (Gly465Arg/Met420del) (Homo sapiens, UniProt O15245, DEL420-420/G465R/L160F); assay: Ranitidine uptake in HEK293 cells overexpressing OCT1*5; assay type: in vitro ADME; conditions: 1 μM and 10 μM ranitidine, 2 min
T1 construct: expressed in transfected cells; host or cells: HEK293 T-REx (Flp-In)
T1 sequence (O15245 with tags, fused parts or gaps L160F/DEL420-420/G465R): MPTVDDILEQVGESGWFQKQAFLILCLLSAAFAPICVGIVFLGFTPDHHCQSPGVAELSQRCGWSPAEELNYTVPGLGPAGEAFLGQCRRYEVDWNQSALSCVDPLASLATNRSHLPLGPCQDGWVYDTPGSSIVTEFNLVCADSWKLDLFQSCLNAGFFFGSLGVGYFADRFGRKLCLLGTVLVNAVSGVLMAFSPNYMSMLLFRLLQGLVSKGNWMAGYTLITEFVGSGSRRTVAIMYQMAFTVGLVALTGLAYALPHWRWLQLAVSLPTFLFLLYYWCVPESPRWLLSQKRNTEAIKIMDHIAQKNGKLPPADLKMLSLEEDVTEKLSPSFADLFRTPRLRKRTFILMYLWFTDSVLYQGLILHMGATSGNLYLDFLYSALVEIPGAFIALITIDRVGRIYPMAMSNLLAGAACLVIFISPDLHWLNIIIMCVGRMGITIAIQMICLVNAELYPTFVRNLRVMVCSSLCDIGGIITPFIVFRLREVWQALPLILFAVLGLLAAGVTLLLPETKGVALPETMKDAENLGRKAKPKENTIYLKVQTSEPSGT
Description: (§1) HEK293 or CHO cells overexpressing the human OCT1 alleles *1A (characterized by the amino acid substitution Met408Val), *1B, *1C (Phe160Leu), *1D (Pro341Leu/Met408Val), *2 (Met420del), *3 (Arg61Cys), *4 (Gly401Ser), *5 (Gly465Arg/Met420del), *6 (Cys88Arg/Met420del), *7 (Ser14Phe), *8A (Arg488Met), *8B (Arg488Met/Met408Val), *9 (Pro117Leu), *10 (Ser189Leu), *11 (Ile449Thr), *12 (Ser29Leu), or *13 (Thr245Met), the human OCT2 reference and variant alleles (Ala270Ser), human OCT3, and the control cells (transfected with the empty pcDNA5 vector) were generated by targeted chromosomal integration using the Flp-In™ System (Life Technologies, Darmstadt, Germany).
(§2) Six hundred thousand HEK293 or CHO cells were plated per well in 12-well plates (pre-coated with poly-D-lysine) and were grown for 48 hours to reach confluence. Cells were kept at 37°C and 5% CO2 in DMEM (HEK293) or RPMI (CHO), supplemented with 10% FCS, 100 U/ml penicillin, and 100 μg/ml streptomycin. Uptake experiments were performed at pH 7.4 using HBSS supplemented with 10 mM HEPES buffer (herein referred to as HBSS+). […]
(§3) For all transport measurements, the intracellular amount of substrate was normalized to the total amount of protein of the sample as measured using the bicinchoninic acid assay [49].
(§4) For quantification of intracellular substrates, the cell debris were removed by centrifugation at 17,000 x g for 10 min. […]

OCT1*12 (Ser29Leu) = molecular target: T2, OCT1*12 (Ser29Leu) (Homo sapiens, UniProt O15245, L160F/S29L); assay: Ranitidine uptake in HEK293 cells overexpressing OCT1*12; assay type: in vitro ADME; conditions: 1 μM and 10 μM ranitidine, 2 min
T2 construct: expressed in transfected cells; host or cells: HEK293 T-REx (Flp-In)
T2 sequence (O15245 1-554 S29L/L160F): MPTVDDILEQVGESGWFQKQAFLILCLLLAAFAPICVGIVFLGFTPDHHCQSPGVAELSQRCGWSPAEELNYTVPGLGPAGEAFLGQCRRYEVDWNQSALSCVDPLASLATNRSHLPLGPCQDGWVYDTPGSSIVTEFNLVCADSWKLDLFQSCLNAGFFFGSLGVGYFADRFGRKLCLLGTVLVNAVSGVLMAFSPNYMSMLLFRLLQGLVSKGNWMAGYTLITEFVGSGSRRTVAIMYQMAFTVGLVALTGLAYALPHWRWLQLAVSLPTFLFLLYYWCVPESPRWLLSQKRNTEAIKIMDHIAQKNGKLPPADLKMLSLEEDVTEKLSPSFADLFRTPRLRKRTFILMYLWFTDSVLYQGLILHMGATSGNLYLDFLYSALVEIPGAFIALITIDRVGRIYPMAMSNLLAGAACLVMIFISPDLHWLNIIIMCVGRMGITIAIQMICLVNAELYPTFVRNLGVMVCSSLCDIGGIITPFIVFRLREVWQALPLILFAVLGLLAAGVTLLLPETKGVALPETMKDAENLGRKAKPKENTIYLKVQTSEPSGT
Description: as §1, §2, §3, §4

OCT1*1 = molecular target: T3, OCT1*1 (Homo sapiens, UniProt O15245, L160F); assay: Inhibition by ranitidine of OCT1-mediated substrate uptake, reference allele, HEK293 cells; assay type: cell-based; conditions: for inhibition at 2 min: human, HEK293 cells overexpressing OCT1*1 (reference allele); for IC50: OCT1*1, 2 min, HEK293
T3 construct: expressed in transfected cells; host or cells: HEK293 T-REx (Flp-In)
T3 sequence (O15245 1-554 L160F): T2 sequence (O15245 1-554 S29L/L160F) with L29S
Description: as §1
Cells were kept at 37°C and 5% CO2 in DMEM (HEK293) or RPMI (CHO), supplemented with 10% FCS, 100 U/ml penicillin, and 100 μg/ml streptomycin. Uptake experiments were performed at pH 7.4 using HBSS supplemented with 10 mM HEPES buffer (herein referred to as HBSS+). Cells were washed once with 1 ml pre-warmed HBSS+ buffer (37°C). […] Cells were washed twice with 2 ml ice-cold HBSS+ and lysed in 500 μl lysis buffer.
The intracellular concentration of MPP^+ was determined using liquid scintillation counting of radioactively labeled substrate. To this end, 400 μl cell lysate was measured with 9 ml Aquasafe Plus liquid scintillator using the Scintillation Counter LS6500 (Beckman Coulter, Krefeld, Germany). Intracellular ASP^+ concentrations were determined using fluorescence spectroscopy.
as §3
For quantification of intracellular substrates, the cell debris were removed by centrifugation at 17,000 x g for 10 min. Four-hundred μl of the supernatant was evaporated to dryness under nitrogen flow at 40°C. The residue was reconstituted in 200 μl 0.1% formic acid and 10 μl were injected into the LC-MS/MS. For the LC-MS/MS analysis an API 4000™ system tandem mass spectrometer (AB SCIEX, Darmstadt, Germany) was used. Samples were separated using a Brownlee SPP RP-Amide Column (4.6x100 mm, 2.7 μm; PerkinElmer), with a SecurityGuard C18, 4x2 mm pre-column (Phenomenex, Aschaffenburg, Germany).
Nonlinear regression to the Michaelis-Menten equation was performed to determine Km and vmax using GraphPad Prism version 6 (GraphPad Software Inc., La Jolla, CA, USA). Nonlinear regression to the Hill equation v = vmin+(vmax-vmin)/1+([I]/IC50)^-Hillslope was performed to determine IC50 using SigmaPlot version 12.0 (Systat Software, San Jose, California, USA).

[2] = molecular target: T4, OCT1*1D (Pro341Leu/Met408Val) (Homo sapiens, UniProt O15245, L160F/M408V/P341L); conditions: 1 and 10 μM ranitidine, 2 min
T4 sequence (O15245 1-554 L160F/P341L/M408V): T2 sequence (O15245 1-554 S29L/L160F) with L29S, P341L, M408V
Description: as §1, §2, §3, §4

[3] = dogs; cited from earlier work

CNC(=C[N+](=O)[O-])NCCSCc1ccc(CN(C)C)o1 [ranitidine, Ranitidine]
ranitidine transport activity [1]: completely lacked ranitidine uptake; also recorded: complete lack of ranitidine transport activity | ranitidine transport activity (OCT1*12 (Ser29Leu)): completely lacked ranitidine uptake; also recorded: complete lack of ranitidine transport activity | induction of morphine uptake (OCT1*1; at Cmax of ranitidine, reference allele only, not in OCT1*2): 41% | inhibition at 2 min (OCT1*1; pH 7.4, probe metformin (100 μM), read-out: inhibition of metformin uptake): 50% | inhibition at 2 min (OCT1*1; pH 7.4, high concentrations expected in the gastrointestinal tract, all substrates tested, reference allele, read-out: inhibition of substrate uptake): > 70% | IC50 (OCT1*1; substrate 0.1 μM MPP+): 81.9 µM | IC50 (OCT1*1; substrate 0.1 μM morphine): 45.5 ± 5.49 µM | IC50 (OCT1*1; substrate 1 μM ASP+): 337 µM | IC50 (OCT1*1; substrate 100 μM metformin): 20.9 µM | uptake of ranitidine compared to the reference allele [2]: no significant difference | reduction of basolateral uptake by co-administration of probenecid [3]: four-fold

— publication PMC5728534 (PLoS ONE, 2017)
